pKi: −log10 of the molar value. Counter-ions that a name gives are not always drawn.

The experiment deals with T1, factor VIIa/tissue factor complex (Homo sapiens, UniProt P08709).
T1 construct: 9 nM of soluble factor VIIa
Nature of the experiment: Inhibition of amidolytic activity of factor VIIa/tissue factor complex, chromogenic substrate Chromozym-tPA. Format: biochemical. Particulars: 26 nM tissue factor, 9 nM soluble factor VIIa, room temperature, pH 7.5. As for the experimental part: Measurements were carried out by an automated robotic assay on microtitre plates at room temperature. To this end, 100 μl of a solution of 26 nM of tissue factor, 9 nM of soluble factor VIIa and 8 mM of calcium chloride were added to 25 μl of a solution of the inhibitor in a buffer [pH 7.5, 100 mM, comprising 0.14M NaCl, 0.1M N-(2-hydroxyethyl)piperazine-N′-(2-ethanesulphonic acid) (HEPES), 0.5 mg/l of fatty-acid-free BSA (bovine serum albumin) and 0.05% NaN3] in each well of the plate. After an incubation time of 15 minutes the reaction was started by the addition of 50 μl of chromogenic substrate Chromozym-tPA (3.5 mM, MeSO2-D-Phe-Gly-Arg-paranitroamlide) and the hydrolysis of the substrate was followed spectrophotometrically on a kinetic microtitre plate reader over 10 minutes. Using the plot of the inhibition curves, the Ki values were determined according to the method described in Biochem. J. 55, 1953, 170-171.

T1 sequence (P08709 213-466 limits assumed): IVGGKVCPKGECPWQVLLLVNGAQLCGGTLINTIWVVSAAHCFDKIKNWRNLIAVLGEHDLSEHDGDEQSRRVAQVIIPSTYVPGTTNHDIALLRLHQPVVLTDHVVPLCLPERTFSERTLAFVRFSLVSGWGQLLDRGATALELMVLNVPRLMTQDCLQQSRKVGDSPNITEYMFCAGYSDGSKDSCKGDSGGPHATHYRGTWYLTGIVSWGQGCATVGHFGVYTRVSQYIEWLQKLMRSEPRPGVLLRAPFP
T1 sequence (P08709 61-212 limits assumed): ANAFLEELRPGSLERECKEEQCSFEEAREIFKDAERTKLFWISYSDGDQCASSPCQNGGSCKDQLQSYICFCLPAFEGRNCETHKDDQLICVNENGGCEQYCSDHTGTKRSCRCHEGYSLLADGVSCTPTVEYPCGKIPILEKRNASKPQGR
T1 sequence (P13726 33-295 partner): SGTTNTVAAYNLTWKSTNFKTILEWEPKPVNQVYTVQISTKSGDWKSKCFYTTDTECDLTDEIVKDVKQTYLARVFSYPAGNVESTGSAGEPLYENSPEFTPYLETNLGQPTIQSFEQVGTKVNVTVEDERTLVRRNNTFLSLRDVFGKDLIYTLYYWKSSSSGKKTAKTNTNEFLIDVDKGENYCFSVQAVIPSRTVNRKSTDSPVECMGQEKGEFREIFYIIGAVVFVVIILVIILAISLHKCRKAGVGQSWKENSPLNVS

Take `CCOC(=O)CNc1cc(C(=N)N)ccc1CNC(=O)c1cccc(C)c1` [Example 24.1, {5-carbamimidoyl-2-[(3-methyl-benzoylamino)-methyl]-phenylamino}-acetic acid ethyl ester hydrochloride]: the negative-log Ki (pKi) was 7.09.

The compound `CNC(=O)COc1cc(C(=N)N)ccc1CNC(=O)c1cc(Cl)cc(Cl)c1` [Example 18.2, N-(4-carbamimidoyl-2-methylcarbamoylmethoxy-benzyl)-3,5-dichloro-benzamide hydrochloride] showed a pKi of 7.21.

In turn, `Cc1cc(C(=O)NCc2ccc(C(=N)N)cc2OCCNC(=O)c2ccccc2F)ccc1F` [Example 42.2, N-{4-carbamimidoyl-2-[2-(2-fluoro-benzoylamino)-ethoxy]-benzyl}-4-fluoro-3-methyl-benzamide hydrochloride] had a pKi of 7.29.

A word on the pKi: it is the Ki on a negative log10 scale, so that one unit is a factor of ten. High values mean a small Ki, low ones a large Ki.

Values taken from US20060116410A1, “4-Aminomethyl benzamidine derivatives” (priority 2004, published 2006).
